Data as given in ChEMBL document CHEMBL1157124, “Synthesis and anticancer evaluation of alpha-lipoic acid derivatives” (Bioorg Med Chem Lett, 2010).

Legend:
Format in all cases: functional
KB [1] = assay: Cytotoxicity against human KB cells assessed as growth inhibition at 1 ug/ml after 24 hrs by MTT assay; conditions: read-out: GI
[2] = Cytotoxicity against human HO8910 cells assessed as growth inhibition at 1 ug/ml after 24 hrs by MTT assay; conditions: HO-8910, 24 h, read-out: GI
NCI-H460 [3] = assay: Cytotoxicity against human NCI-H460 cells assessed as growth inhibition at 0.1 ug/ml after 24 hrs by MTT assay; conditions: NCI-H460, 24 h, read-out: GI
[4] = Cytotoxicity against human HO8910 cells assessed as growth inhibition at 0.1 ug/ml after 24 hrs by MTT assay; conditions: HO-8910, 24 h, read-out: GI
Bel-7402 [5] = assay: Cytotoxicity against human Bel7402 cells assessed as growth inhibition at 100 ug/ml after 24 hrs by MTT assay; conditions: Bel-7402, 24 h, read-out: GI
Bel-7402 [6] = assay: Cytotoxicity against human Bel7402 cells assessed as growth inhibition at 10 ug/ml after 24 hrs by MTT assay; conditions: Bel-7402, 24 h, read-out: GI
KB [7] = assay: Cytotoxicity against human KB cells assessed as growth inhibition at 100 ug/ml after 24 hrs by MTT assay; conditions: read-out: GI
KB [8] = assay: Cytotoxicity against human KB cells assessed as growth inhibition at 0.1 ug/ml after 24 hrs by MTT assay; conditions: read-out: GI
NCI-H460 [9] = assay: Cytotoxicity against human NCI-H460 cells assessed as growth inhibition at 1 ug/ml after 24 hrs by MTT assay; conditions: NCI-H460, 24 h, read-out: GI
[10] = Cytotoxicity against human HO8910 cells assessed as growth inhibition at 100 ug/ml after 24 hrs by MTT assay; conditions: HO-8910, 24 h, read-out: GI
[11] = Cytotoxicity against human HO8910 cells assessed as growth inhibition at 10 ug/ml after 24 hrs by MTT assay; conditions: HO-8910, 24 h, read-out: GI
Bel-7402 [12] = assay: Cytotoxicity against human Bel7402 cells assessed as growth inhibition at 0.1 ug/ml after 24 hrs by MTT assay; conditions: Bel-7402, 24 h, read-out: GI
NCI-H460 [13] = assay: Cytotoxicity against human NCI-H460 cells assessed as growth inhibition at 10 ug/ml after 24 hrs by MTT assay; conditions: NCI-H460, 24 h, read-out: GI
NCI-H460 [14] = assay: Cytotoxicity against human NCI-H460 cells assessed as growth inhibition at 100 ug/ml after 24 hrs by MTT assay; conditions: NCI-H460, 24 h, read-out: GI
KB [15] = assay: Cytotoxicity against human KB cells assessed as growth inhibition at 10 ug/ml after 24 hrs by MTT assay; conditions: read-out: GI
Bel-7402 [16] = assay: Cytotoxicity against human Bel7402 cells assessed as growth inhibition at 1 ug/ml after 24 hrs by MTT assay; conditions: Bel-7402, 24 h, read-out: GI

Structure (SMILES)	inhibition of growth at 1 µg/mL (KB [1])	inhibition of growth at 1 µg/mL [2]	inhibition of growth at 0.1 µg/mL (NCI-H460 [3])	inhibition of growth at 0.1 µg/mL [4]	inhibition of growth at 100 µg/mL (Bel-7402 [5])	inhibition of growth at 10 µg/mL (Bel-7402 [6])	inhibition of growth at 100 µg/mL (KB [7])	inhibition of growth at 0.1 µg/mL (KB [8])	inhibition of growth at 1 µg/mL (NCI-H460 [9])	inhibition of growth at 100 µg/mL [10]	inhibition of growth at 10 µg/mL [11]	inhibition of growth at 0.1 µg/mL (Bel-7402 [12])	inhibition of growth at 10 µg/mL (NCI-H460 [13])	inhibition of growth at 100 µg/mL (NCI-H460 [14])	inhibition of growth at 10 µg/mL (KB [15])	inhibition of growth at 1 µg/mL (Bel-7402 [16])
COc1ccc(NC(=O)CCCCC2CCSS2)cc1 (stereo not drawn)	5.03%	3.54%	3.82%	1.64%	38.7%	6.32%	48.3%	4%	0.51%	43.8%	6.34%	5.48%	9.82%	45.7%	2.94%	7.93%
O=C(CCCCC(S)CCS)Nc1ccc(F)cc1 (stereo not drawn)	8.84%	12.2%	5.64%	8.11%	11.7%	6.14%	28.2%	6.78%	6.84%	22.2%	6.81%		18.1%	41.6%	13.3%	
O=C(CCCCC1CCSS1)Nc1ccccc1Cl (stereo not drawn)		7.74%	8%	8.17%	4.74%		0.72%	5.11%	10.1%		4.66%	6.83%	14.6%	3.38%		5.33%
CC(=O)SCCC(CCCCC(=O)Nc1ccccc1)SC(C)=O (stereo not drawn)	1.68%	10.6%	15.4%	8.33%	14.1%		22.9%	7.24%	13.1%	22.3%	3.2%		14.2%	44.8%	2.5%	2.84%
O=C(CCCCC(S)CCS)Nc1cccc(C(F)(F)F)c1 (stereo not drawn)		13.7%	11.9%	10.8%	25.3%	1.21%	30.5%	8.41%	8.26%	34.8%	8.86%	2.85%	11.4%	32.1%	1.97%	1.66%
O=C(CCCCC(CCSC(=O)c1ccccc1)SC(=O)c1ccccc1)Nc1ccccc1Cl (stereo not drawn)	3.05%	2.35%	15.1%			6.63%		3.62%	14.4%		1.33%	5.72%	12.1%		2.53%	7.37%
O=C(CCCCC(S)CCS)Nc1ccccc1 (stereo not drawn)	11.6%	6.38%	5.5%	7.37%	7.67%	3.72%	15.8%	9.49%	4.3%	13.7%	5.49%	0.85%	8.37%	25.4%	8.62%	1.32%
